Like-named read-outs stand apart in the source and are kept apart here.
Experiments:
GL-26 glioma cells = experiment: SRB growth assay, GL-26 glioma cells, 48 hr drug incubation; type: cell-based, murine (C57BL/6); conditions: for IC50: SRB, read-out: IC50 against GL-26 tumor cells
Method: The murine (C57BL/6) glioma cell line, GL-26, which is highly tumorigenic in the C57BL/6 mice. GL-26 cells were cultured in DMEM/F12 supplemented with 10% FCS, 1% penicillin/streptomycin, 1% L-glutamine and 1% non-essential amino acids. Human foreskin fibroblasts (HFFs) were cultured in DMEM/F12 supplemented with 10% FCS and 1% penicillin/streptomycin. Primary murine astrocytes were purified from C57BL/6 neonate brains and cultured in DMEM/F12 supplemented with 10% FCS, 1% non-essential amino acids, 1% Lglutamine, 50 IU/ml penicillin, […] and 10 mM Hepes buffer.
The sulforhodamine B (SRB) cytotoxicity assays were adapted from Skehan et al. (22). Briefly, either HFF, primary astrocytes or GL-26 cells were plated in 96-well plates at a density of 4,000 cells/well in a volume of 100 µL overnight at 37° C. and 5% CO2. DMSO stock solutions of SBP, MSBP or TMZ were used at a concentration range of 0.1-25 μM for 48 hr before the supernatant was discarded and the cells were fixed for 1 hr with 10% cold trichloroacetic acid (100 μL, per well). Cells used in recovery assay received fresh media for 48 hrs following the 48 hr drug incubation. The plate was then washed 5 times with de-ionized water, air dried, and stained with 0.4% SRB for 10 min (50 μL, per well). After washing 5 times in 1% acetic acid and air-drying, bound SRB was dissolved in 10 mM unbuffered Tris base (pH 10.5; 100 μL, per well). Bound SRB was then read by absorbance at 492 nm on a SpectraMax plate reader (Molecular Devices). The percent survival was then calculated based upon the absorbance values relative to control wells (0 μM SBP in 0.1% DMSO).

GL-26 glioma = experiment: In-vivo intracranial GL-26 glioma model; parameters: species or system C57BL/6 mice
Method: Female C57BL/6 mice were obtained from Jackson Laboratories and maintained in a pathogen free environment under IACUC established protocols at the University of California Riverside. Mice were anesthetized with continuous administration of 2.5% isofluorane. Cultured GL-26 cells were harvested by trypsinization and 90,000 GL-26 cells in 3 μL of sterile Na+/K+ balanced PBS were injected intracranially. The injection was administered 1 mm anterior and 2 mm lateral to the junction of the coronal and sagittal sutures (bregma), at a depth of 2 mm using a stereotactic mouse frame. Care was taken in alternating injection order and group assignment (treated vs. non-treated) to assure equal GL-26 cell viability between the two treatment groups. SBP was administered intravenously through the retro-orbital route at a concentration of 10 mg/kg in 200 μL sterile Na+/K+ balanced PBS. Drug was administered one, seven, and 13 days after tumor implantation.
Histology: For brain tumor histology, mice were perfused intracardially with 4% formaldehyde in Na+/K+ balanced PBS and brains were extracted, incubated in 4% formaldehyde overnight followed by 30% sucrose in Na+/K+ balanced PBS. Brains were flash frozen in isopentane, embedded in optimal cutting temperature compound (OCT), cryosectioned in coronal sections (12 μm) and stained with hematoxylin and eosin. Another cohort of equivalently drug-treated mice was used for liver, lung and gut histology. The mice were then sacrificed on day 19, and the liver, lung and gut tissues were collected and placed in 4% formaldehyde in Na+/K+ balanced PBS overnight. The organs were then placed for 48 hrs in 70% EtOH before paraffin embedding and sectioning at 6 μm. Sections were then stained with hematoxylin and eosin and pathology was assessed blindly and independently by a trained pathologist. A TUNEL staining kit was obtained from TREVIGEN (NeuroTACS II In Situ Apoptosis Detection Kit, Cat#4823-30-K) and used for both ex-vivo slices and in-vitro staining according to manufacturers instructions.

A549 lung cancer cells = experiment: SRB colorimetric assay, A549 lung cancer cells, 72 hours; type: cell-based, human; conditions: Homo sapiens; A549, 72 hours, average ± SD of three curves
Method: A549 cells were cultured in RPMI media supplemented with 10% Fetal Bovine Serum and 1% nonessential amino acids. Sub-culturing was carried out every 3-4 days and was completed by removing the supernatant media and treating the adherent cells with 1.0 mL of a 0.25% (w/v) Trypsin/0.5 mM EDTA solution. The cells were then treated for approximately 3 minutes in a 37° C. incubator under a 5% CO2 atmosphere. Trypsinization was stopped by the addition of 7.0 mL of cell culture media, the suspended cells were collected by centrifugation, and the resulting cell pellet was re-suspended in fresh cell culture media. The cells were then diluted 1:4 by volume and incubated in a 37° C. incubator with 5% CO2. Cells were grown to 80-90% confluency prior to being used in the SRB colorimetric assays.
To test the effects of compounds 1-18 on the growth of A549 lung cancer cells, SRB cytotoxicity assays were done as described by Skehan et al. Cells were maintained in RPMI media as described above, collected, and diluted so that cells could be seeded in 96-well plates at a density of 4,000 cells/well. The 96-well plate was incubated overnight at 37° C. under a 5% CO2 atmosphere. Subsequently, sterifiltered DMSO stock solutions of the drugs were added to the wells in various concentrations (0-25 μM) and the 96-well plate was incubated at 37° C. under a 5% CO2 for an additional 72 hours. The supernatant cell culture medium was then removed and the cells were fixed for 1 hour with 10% cold trichloroacetic acid (100 μL per well). The trichloroacetic acid was discarded and the plates were washed 5 times with de-ionized water and air dried. After being stained with 0.4% SRB ([…]) and incubated at room temperature for 10 minutes, the cells were washed 5 times with 1% acetic acid and air dried. The bound SRB was dissolved in 10 mM unbuffered Tris, pH 10.5 ([…]) for 10 minutes at room temperature, and the absorbance at 492 nm was measured using a microplate reader. The percent cell growth was then calculated based upon the absorbance values relative to control samples not containing any drug. Each drug concentration was done in triplicate to yield a percent growth vs. drug concentration curve, and these growth curves were subsequently repeated two additional times. The growth curves from the three experiments were then plotted in GraphPad Prism and best-fit curves were used to generate the IC50 values for each curve.

[1] = tested on: A549 and H1703 lung cancer lines, and 886LN, Tu212, and Tu686 head/neck cancer lines; conditions: head-neck and lung tumor lines; cited from earlier work

**Q.** Which results are given for `CCC(C)c1ccc2ccc3ccc(C(C)CC)nc3c2n1` (stereo not drawn) [Compound 1, 2,9-di-sec-butyl-1,10-phenanthroline]?
**A.** inhibition at 6 µM (GL-26 glioma cells; Mus musculus, GL26, 6 μM, read-out: GL-26 cell growth inhibition): 66 ± 1%; inhibition at 25 µM (GL-26 glioma cells; Mus musculus, GL26, 25 μM, read-out: GL-26 cell growth inhibition): 67 ± 0.5%; IC50 (GL-26 glioma cells; Mus musculus, GL26, 48 h): 3 to 6 µM; IC50 (GL-26 glioma cells; listed as SBP): 3 µM; body weight regained, % of initial weight (GL-26 glioma; 10 mg/kg i.v. days 1, 7, 13, 19-day trial): 98.1±3.4%; tumor section area (pixel area) at the largest tumor cross-section (GL-26 glioma; 10 mg/kg i.v. days 1, 7, 13, sacrificed day 19, N=3): 5489±1369; in situ TUNEL staining of brain tumor sections (GL-26 glioma; day 19): dark brown cytoplasmic and nuclear staining indicative of cell necrosis and increased DNA fragmentation; tumors in treated mice smaller than in untreated control mice (GL-26 glioma; mouse, in vivo): 5-10 times; IC50 (A549 lung cancer cells): 0.42 ± 0.17 µM; IC50 times lower than cisplatin [1]: 20-100 times; IC50 times lower than the parent gold(III) complex [1]: 4-14 times; in-vitro IC50 values [1]: in the nanomolar concentration regime
